Marks after values point to notes of the source that are not given here.
Columns and labels:
Format in all cases: in vivo, mouse
[1] = tested on: Hbb^th3/+ mice (β-thalassemia model); assay: bone marrow erythroid precursors by flow cytometry (CD44, TER119); details: for percent of bone marrow erythroid precursors (fsc high CD44+TER119+ cells), Mean: ICD-Treated, 3 weeks
Method: Wild-type C57BL/6J mice and the mouse model for β-thalassemia (designated as Hbb^th3/+) were used for these studies. Flow cytometric analysis and sorting of mouse bone marrow and spleen precursors were performed using standard protocols using markers for CD44 and TER119 and cell size (forward scatter) to distinguish erythroid precursors at each distinct developmental stage. Forward scatter high-CD44+Ter119+ cells represents total erythroblasts (or erythroid mass in bone marrow or spleen). These erythroblasts can be further analyzed and sorted in subpopulations: population I: pro-erythroblasts; population II: basophilic erythroblasts; population III: polychromatic erythroblasts; population IV: orthochromatic erythroblasts, as described in Matte et al 2015, Antioxid. Redox Signal. 2015 23(16):1284-1297. Population II, III and IV corresponding to basophilic erythroblasts, polychromatic erythroblasts and orthochromatic erythroblasts were sorted from bone marrow as previously described (Matte et al 2015 Antioxid. Redox Signal. 2015 23(16):1284-1297).
Ineffective erythropoiesis in β-thalassemia is characterized by a block in cell maturation with accumulation of erythroid precursors and increased cell apoptosis in late phase erythropoiesis in the bone marrow.
Treatment of Hbb^th3/+ mice with PTPRG ICD results in a statistically significant increases in the percent of proerythroblasts (P<0.001) back to normal levels (5.9+/−0.6). In addition, ROS levels, which are increased in all four populations in Hbb mice compared to wild type mice are decreased PTPRG ICD-treated mice in all four populations, in agreement with the decrease in ROS levels in circulating red cells (Table 39).

[2] = tested on: Hbb^th3/+ mice (β-thalassemia model); assay: circulating erythroblasts; details: TAT-ICD 5 mg/kg i.p once every other day for 3 weeks
[3] = tested on: Hbb^th3/+ mice (β-thalassemia model); assay: percent of soluble alpha globin in red cells; details: TAT-ICD 5 mg/kg i.p once every other day for 3 weeks
Text: We also observed a significant improvement in the α/β globin ratio with treatment of beta-thalassemic mice, a key measure of successful treatment of beta-thalassemia. The mutations in the beta-globin gene in beta-thalassemia results in absent or reduced synthesis of beta-globin chains leading to unbalanced globin chain synthesis and unpaired alpha-chain that form highly toxic aggregates in erythroid progenitors and red blood cells, and can be measured as a decrease in soluble alpha globulin. We measured the amount of soluble vs insoluble globulin not bound to heme (Table 38) and observed a significant (P<0001; 2 tailed T test) decrease in the percent of soluble alpha-globin in the beta-thalassemic mice compared to wild type mice (Table 38).

[4] = tested on: Hbb^th3/+ mice (β-thalassemia model); assay: apoptosis of bone marrow orthochromatic erythroblasts (Annexin-V PE); details: ICD-Treated, 3 weeks
Method: One of the hallmarks of β-thalassemia is increased apoptosis of late-stage erythroblasts. Apoptosis of population IV (orthochromatic erythroblasts) was assessed using standard protocols using the Annexin-V PE apoptosis kit following manufacturer instructions. Data are the mean percent of apoptotic cells (Table 42).

Substance: TAT-ICD: fusion recombinant protein SEQ ID 5: PTPRG intracellular domain aa 797-1445 fused to 13 aa TAT sequence
- percent of bone marrow erythroid precursors (fsc high CD44+TER119+ cells), Mean ([1]; Hbb^th3/+ mice): 23.8* percent
- percent of bone marrow erythroid precursors (fsc high CD44+TER119+ cells), Mean ([1]; Wild-type mice): 13.9%
- percent of pro-erythroblasts (population I) in bone marrow ([1]; treated Hbb^th3/+ mice, untreated Hbb^th3/+ 3.6+/−0.9, wild-type 6.5+/−0.9): 5.9+/−0.6%
- circulating erythroblasts ([2]; Hbb^th3/+ mice, Vehicle-treated 32.0): 10.8*
- circulating erythroblasts ([2]; Wild-type mice, Vehicle-treated 0): 0
- percent of soluble alpha globulin ([3]; Hbb^th3/+ mice, Vehicle-treated 87.9): 92.5* %
- percent of soluble alpha globulin ([3]; Wild-type mice, Vehicle-treated 98.4): 97.9%
- mean percent of apoptotic cells, bone marrow orthochromatic erythroblasts (population IV) ([4]; Hbb^th3/+ mice): 5.75* percent
- mean percent of apoptotic cells, bone marrow orthochromatic erythroblasts (population IV) ([4]; Wild-type mice): 4.20%
